According to US20030199671A1, “Binding molecules for Fc-region polypeptides” (priority 2001, published 2003):
Positions of bridges follow the written chain, without caps; N, C: chain ends. Residues, ends and D or L forms follow the SMILES beside them.

What was measured:
[1] = biological target: T1, human plasma IgG3 (Homo sapiens, UniProt P01860); assay: Fluorescence anisotropy binding, fluorescein-labeled peptide
T1 construct: the individual human plasma IgG isoforms: IgG1, IgG2, IgG3, or IgG4; purchased Calbiochem; host or cells: human plasma

[2] = biological target: Fc (mixture of human plasma IgG isoforms); assay: as above; conditions: pH 8.0, 0.05 M Tris-HCl, 0.2 M NaCl
How it was run: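 Fluorescence anisotropy with fluorescein-labeled peptide (20 nM or 2 nM) titrated with human plasma IgG isoform or mixed-IgG Fc target. Fc buffer 50 mM Tris-HCl, 200 mM NaCl, pH 8.0, 0.01% Tween 20; IgG buffer PBS, 0.01% Tween 20. Equilibrated 10 minutes at 30° C before polarization read.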

[3] = tested on: human Fc fragments; assay: Mini-chromatography column capture from PBST; assay type: binding; conditions: 350 μl column, Fc spiked into PBST, pH 7.2
Method: For these experiments, 350 μl columns (3×50 mm) were packed with each media. The columns were tested with human Fc fragments or human IgG1 (Calbiochem, 401104 and 400120 respectively) spiked into PBST, pH 7.2 at a concentration of 0.5 g/l. 65 μg of Fc was loaded onto each column. After loading, the columns were washed with PBST, pH 7.2, eluted with 30 mM H3PO4, 150 mM NaCl, pH 2.0 and cleaned with 0.1M CAPS, pH 11.5 buffer (3-[Cyclohexylamino]-1-propane-sulfonic acid). Fractions collected were immediately neutralized to pH ˜7.2 with 2.0 M Tris, pH 8.0. All column operations were conducted at 200 μl/min (170 cm/hr).

[4] = tested on: human IgG; assay: DX253 column cycling with IgG spiked cell culture media
Method: DX253 peptide was immobilized onto NHS-activated 4 Fast Flow to a ligand density of 2.9 μmole/ml as determined by quantitative amino acid analysis. This affinity resin was packed into a 4.6 mm×6 cm (internal diam.×length, 1.0 ml bed volume) PEEK column (Isolation Technologies, Inc., 5050IP-08046-006-20).
Human IgG was spiked into fresh cell culture media (DMEM) containing 10% fetal bovine serum (ultra low) to 0.5 mg/ml. 2 ml (1.0 mg IgG) was loaded onto the column which was pre-equilibrated with PBS, pH 7.2. Loading was performed at 0.21 ml/minute (75 cm/hour) and all subsequent steps (wash, elution and cleaning) were performed at 0.42 ml/minute (150 cm/hour). Unbound sample was washed to baseline with PBS, pH 7.2, followed by elution with 0.1M citrate, pH 3.0, wash with PBS, pH 7.2, cleaning with 3M guanidine-HCl, 20 mM phosphate, pH 7.2 and re-equilibration back into PBS, pH 7.2. A total of 19 series of 5 cycles each (95 cycles total) were run. […] This procedure was used for cycles 1-25, 27-65, 67-85, and 87-95.

[5] = biological target: T2, human IgG1 (Homo sapiens, UniProt P01857); assay: Column capture out of tobacco extract; assay type: binding; conditions: from tobacco extract, size exclusion HPLC
T2 construct: all human subtypes derived from myeloma patients; purchased Calbiochem 400120; host or cells: myeloma patients
Method: The ability of affinity media based on DX253 to capture human Fc and human IgG1 out of tobacco extract was evaluated in separate experiments. The tobacco extract used was a representative concentration blank lot (CropTech, lot NV100-136). Human Fc or IgG1 was spiked into the tobacco extract at 50 μg/ml. 100 μg (2 ml) was loaded onto a 350 μl column packed the DX253 media at 200 μl/min. (170 cm/hr.). Prior to loading, the column had been equilibrated with 50 mM Tris buffer containing 150 mM NaCl and 0.01% Tween 20, pH 7.3 (TBST, pH 7.3). After loading, the column was washed with 50 mM Tris buffer containing 1M NaCl, pH 7.3 followed by elution with 30 mM H3PO4, 150 mM NaCl, pH 2.0. The column was then cleaned with 0.1 M CAPS, pH 11.5 and separately with 30% isopropanol, 5% acetic acid in water, ˜pH 2.7. Collected fractions were neutralized immediately with 2M Tris, pH 8, prior to analysis by size exclusion HPLC.

[6] = tested on: bovine IgG; assay: Mini-chromatography column binding (dynamic conditions); conditions: 250 μg target, 170 cm/hr
Method: (§1) Thus, 250 μg of target (hIgG1, hIgG2, hIgG3, hIgG4, goat IgG and bovine IgG) at 0.250 mg/ml in PBST, pH 7.2 or TBST, pH 7.3 was loaded onto a 350 μl column (3×50 mm) run at 0.200 ml/min. flowrate (170 cm/hr). Flowthrough, elution and cleaning fractions were collected and assayed for total protein recovery by size-exclusion HPLC. Percentage mass balance was also determined to be 90-100% on average.

[7] = tested on: goat IgG; assay: as above; conditions: 250 μg target, 170 cm/hr
Method: as §1

[8] = pH 9.3, 0.01 M sodium bicarbonate

T1 sequence (P01860 1-377 isoform P01860-1): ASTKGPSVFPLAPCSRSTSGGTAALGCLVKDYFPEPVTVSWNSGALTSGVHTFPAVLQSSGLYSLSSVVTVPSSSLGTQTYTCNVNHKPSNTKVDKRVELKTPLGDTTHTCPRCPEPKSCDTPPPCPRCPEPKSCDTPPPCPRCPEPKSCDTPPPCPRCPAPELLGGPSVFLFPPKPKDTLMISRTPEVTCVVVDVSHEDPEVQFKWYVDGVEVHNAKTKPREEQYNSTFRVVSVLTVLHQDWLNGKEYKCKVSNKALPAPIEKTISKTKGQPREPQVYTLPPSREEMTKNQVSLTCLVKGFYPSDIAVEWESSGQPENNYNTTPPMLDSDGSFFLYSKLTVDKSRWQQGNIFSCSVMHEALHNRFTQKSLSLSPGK
T2 sequence (P01857 1-330 isoform P01857-1): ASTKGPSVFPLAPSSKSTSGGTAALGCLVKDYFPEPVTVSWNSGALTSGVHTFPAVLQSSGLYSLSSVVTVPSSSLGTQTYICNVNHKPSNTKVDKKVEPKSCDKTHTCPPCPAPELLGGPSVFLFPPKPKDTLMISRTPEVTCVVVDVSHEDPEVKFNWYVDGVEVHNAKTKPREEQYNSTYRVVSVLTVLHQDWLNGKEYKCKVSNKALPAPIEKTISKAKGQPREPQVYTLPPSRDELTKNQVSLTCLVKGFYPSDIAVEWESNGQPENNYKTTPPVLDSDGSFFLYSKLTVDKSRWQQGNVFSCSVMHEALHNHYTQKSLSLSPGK

## CC[C@H](C)[C@@H]1NC(=O)[C@H](CC(C)C)NC(=O)[C@H](CCC(=O)O)NC(=O)CNC(=O)[C@H](Cc2c[nH]c3ccccc23)NC(=O)[C@H]([C@@H](C)O)NC(=O)[C@H]([C@@H](C)O)NC(=O)[C@H](Cc2ccc(O)cc2)NC(=O)[C@H](C(C)C)NC(=O)[C@@H](NC(=O)[C@H](CCSC)NC(=O)[C@H](Cc2c[nH]cn2)NC(=O)[C@H](CC(=O)O)NC(=O)[C@H](CC(=O)O)NC(=O)CNC(C)=O)CSSC[C@@H](C(=O)N[C@@H](CC(=O)O)C(=O)N[C@@H](CC(N)=O)C(=O)N[C@@H](Cc2c[nH]cn2)C(=O)N[C@@H](CCC(=O)O)C(=O)N2CCC[C@H]2C(=O)NCC(=O)N2CCC[C@H]2C(=O)N[C@@H](CCC(=O)O)C(=O)NCC(=O)NCC(=O)NCC(=O)N[C@@H](CCCCN)C(N)=O)NC(=O)[C@H](Cc2c[nH]c3ccccc23)NC1=O [DX249] (Ac-GDDHMCVYTTWGELIWCDNHEPGPEGGGK-NH2; disulfide 6-17)
[1]; pH 5.7, 0.01 M Tris-acetate
  Kd: > 10 µM
[1]; pH 7.4, 0.01 M Tris-HCl
  Kd: > 10 µM
[1]; pH 7.4, PBS, […] NaCl
  Kd: > 10 µM
[1]; [8]
  Kd: > 10 µM
[2]
  Kd: 2.5 ± 0.5 µM

## CC(=O)NCC(=O)N[C@@H](CC(=O)O)C(=O)N[C@@H](CC(=O)O)C(=O)N[C@@H](CC(=O)O)C(=O)N[C@@H](Cc1c[nH]cn1)C(=O)N[C@H]1CSSC[C@@H](C(=O)N2CCC[C@H]2C(=O)N[C@@H](Cc2c[nH]cn2)C(=O)NCC(=O)N[C@@H](CCC(=O)O)C(=O)N2CCC[C@H]2C(=O)NCC(=O)N2CCC[C@H]2C(=O)N[C@@H](CCC(=O)O)C(=O)NCC(=O)NCC(=O)NCC(=O)N[C@@H](CCCCN)C(N)=O)NC(=O)[C@H](CCC(=O)O)NC(=O)[C@H](CO)NC(=O)[C@H](CC(N)=O)NC(=O)[C@H](Cc2ccccc2)NC(=O)[C@H](Cc2c[nH]c3ccccc23)NC(=O)[C@H](CCC(=O)O)NC(=O)[C@H](CCCNC(=N)N)NC(=O)[C@H](Cc2ccccc2)NC(=O)[C@H](Cc2c[nH]c3ccccc23)NC(=O)[C@H](Cc2ccc(O)cc2)NC1=O [DX252] (Ac-GDDDHCYWFREWFNSECPHGEPGPEGGGK-NH2; disulfide 6-17 (inferred))
[3]
  Capture efficiency, Fc: 70%
[1]; pH 5.7, 0.01 M Tris-acetate
  Kd: < 0.1 µM
[1]; pH 7.4, 0.01 M Tris-HCl
  Kd: 2.1 to 3.4 µM
[1]; [8]
  Kd: > 10 µM
[2]
  Kd: 5.1 ± 3 µM

## Ac-GDRRACSRDWSGALVWCAGHEPGPEGGGK-NH2 (not fully specified (bridges); printed as Ac-GDRRACSRDWSGALVWCAGHEPGPEGGGK-NH2; cysteine pairing not given here) [DX253]
[4]; Cycling Run No. 1, cycling run 1
  % Relative Performance (elution peak area vs cycle 1): 100%
[4]; Cycling Run No. 10, cycling run 10
  % Relative Performance (elution peak area vs cycle 1): 97.6%
[4]; Cycling Run No. 20, cycling run 20
  % Relative Performance (elution peak area vs cycle 1): 97.9%
[4]; Cycling Run No. 30, cycling run 30
  % Relative Performance (elution peak area vs cycle 1): 102.3%
[4]; Cycling Run No. 40, cycling run 40
  % Relative Performance (elution peak area vs cycle 1): 103.1%
[4]; Cycling Run No. 51, cycling run 51
  % Relative Performance (elution peak area vs cycle 1): 102.0%
[4]; Cycling Run No. 60, cycling run 60
  % Relative Performance (elution peak area vs cycle 1): 103.1%
[4]; Cycling Run No. 70, cycling run 70
  % Relative Performance (elution peak area vs cycle 1): 102.6%
[4]; Cycling Run No. 81, cycling run 81
  % Relative Performance (elution peak area vs cycle 1): 102.1%
[4]; Cycling Run No. 90, cycling run 90
  % Relative Performance (elution peak area vs cycle 1): 101.8%
[5]
  % purity monomeric protein, IgG1: 89%

## Prot. A: immobilized recombinant Protein A (RepliGen Corp., product no. IPA-400), positive control [reference compound]
[6]
  Binding efficiency, bovine IgG: high
[7]
  Binding efficiency, goat IgG: moderate
